Measurements taken from paper PMC10372009, “Molecular basis of GDF15 induction and suppression by drugs in cardiomyocytes and cancer cells toward precision medicine” (Scientific Reports, 2023).

Legend:
Assay type in all cases: cell-based, human
GDF15 [1] = experiment: GDF15 secretion (ELISA) by hiPSC-CMs upon cardiotoxic drug treatment; conditions: 48 h; for fold increase of media concentration of GDF15: sublethal and highest (10 µM) concentrations, normalized by DMSO-only control; for GDF15 protein concentration: 1 µM drug
From the text: As many anticancer drugs are cardiotoxic and GDF15 is a well-known biomarker for heart failure, we employed a human induced pluripotent stem cell-derived cardiomyocytes (hiPSC-CMs) model to investigate the effect of drug-induced cardiotoxicity on GDF15 expression in host tissues. To adequately replicate cardiotoxicity using this model, we selected drugs whose cardiotoxic effect in vivo is based on cytotoxicity to cardiomyocytes.
Figure 2 Effect of cardiotoxic drugs on hiPSC-CMs viability and GDF15 secretion and modes of action of applied drugs. (A) hiPSC-CMs viability after 48 h treatment with 20 cardiotoxic drugs. (B) Fold-change of GDF15 expression upon 48 h treatment with 20 cardiotoxic drugs and their reported modes of action. GDF15 expression upon treatment with 10 µM, sublethal drug concentrations and maximal GDF15 induction (from concentration series depicted in (C)). Mean fold-change of 4 biological replicates with a 95% confidence interval were normalized by DMSO-only control. (C) Drug-induced GDF15 expression for different drug concentrations. Fold-change of GDF15 protein concentration upon 48 h treatment with ten cardiotoxic drugs (marked with * in A and B).
(§1) Cardiotoxic drug (SCREEN-WELL® Cardiotoxicity library, BML-2850, ENZO) library was prepared by serial dilution of 10 mM stocks in DMSO to 9 different concentrations ranging from 0.001 to 10 mM, which were further diluted into assay plates to final concentrations ranging from 0.001 to 10 µM. […] The final concentration of DMSO for hiPSC-CMs assay was 0.1%. To investigate the influence of BET inhibitor treatment on doxorubicin induced GDF15 mRNA expression, hiPSC-CMs were pre-treated with 20 nM or 200 nM doxorubicin for 48 h and kept in medium without compound for 24 h before 24 h treatment with either 100 nM BI 894999 or 500 nM OTX015. […] Cancer cell lines were treated with 10 nM, 35 nM or 100 nM of BI 894999 for 4 h or 24 h (Supplementary Table S3).
(§2) For GDF15 mRNA quantification, total RNA was isolated from the cells using an RNeasy kit (Qiagen, 74106) to synthesize cDNA using a Taqman Reverse Transcription kit (Applied Biosystems, N8080234). Quantitative real-time PCR analysis was performed using QuantiNova SYBR Green PCR Kit (Qiagen, 208052) on a CFX96 Real-Time System (Bio-Rad) under the following amplification conditions: 95 °C for 2 min followed by 40 cycles of 95 °C for 5 s and 60 °C for 10 s. The primer sequences are GDF15-F: 5′-[…]-3′, GDF15-R: 5′-[…]-3′, ACTB-F: 5′-[…]-3′ and ACTB-R: 5′-[…]-3′. PCR data were analyzed using a modified relative expression software tool (REST) and the expression level of GDF15 gene was normalized to that of β-actin. For secreted GDF15 protein quantification, cell culture medium was collected after drug treatment and stored at − 20 °C until ELISA was performed using Human GDF-15 ELISA Kit (Abcam, ab155432) according to the manufacturer’s instruction. Resulting GDF15 concentrations were normalized to non-treated control and respective relative cell viability.

GDF15 [2] = experiment: GDF15 gene expression of NCI-60 cancer cell lines treated with 15 anticancer drugs (public data, linear regression); conditions: data ref 34; for induction of GDF15 on average: NCI-60 cancer cell lines; for ratio of responsive cell lines (GDF15 induction): all NCI-60 cell lines, responsive: slope > 0.02 and R-squared > 0.5 within 24 h
From the text: To get further insights into how chemotherapy influences GDF15 expression in cancer, we analyzed public gene expression data of NCI-60 cancer cell lines treated with 15 different anticancer drugs. We used linear regression to quantify the cell line’s drug-specific responsiveness regarding GDF15 induction and categorized the cell lines as “responsive” or “resistant”. Comparing the number of responsive cell lines per drug, we found the ratio of responsive cell lines ranged from 4% for sirolimus to 71% for sorafenib (Supplementary Figure S2). Drugs with DNA damaging properties tended to induce GDF15 more strongly than drugs with other modes of action.
Figure 3 NCI-60 cell line clustering. (A) Hierarchically clustered correlation matrix of GDF15 gene expression levels by NCI-60 cell lines upon 15 drug treatments. Pearson correlation coefficients were calculated evaluating linear regression slope of GDF15 expression within the first 24 h of drug treatment. Clustering of cell lines was performed using Weighted Pair Group Method with Arithmetic Mean (WPGMA) algorithm based on Pearson correlation coefficients. Four cell line clusters were identified. Tissue types of cell lines are color coded. (B) Drug-specific fraction of responsive NCI-60 cell lines in each identified cell line cluster for 15 anticancer drugs. Responsiveness was assumed when linear regression slope of GDF15 expression within 24 h of drug treatment was > 0.02 and R-squared > 0.5. (C) Predicted basally activated or inhibited pathways for the cell line cluster based on identified differences in gene expression.
We obtained basal gene expression values and mutational status of all cancer cell lines from our in-house cancer cell line database. Gene expression data of NCI-60 after compound treatment, basal protein expression, drug sensitivity data, gene dependency data, metabolite expression and compound specifications such as IC50 values and modes of action were collected from different studies and data bases, as described in the supplementary information.
Each NCI-60 cell line was assigned to an array containing 15 drug-specific linear regression slopes of GDF15 mean fold-change. We calculated the Pearson correlation coefficient for every cell line pair to build a 60 × 60 correlation matrix. For agglomerative hierarchical clustering, we applied a “Weighted Pair Group Method with Arithmetic Mean” (WPGMA) algorithm to the resulting correlation matrix. The identified clusters represent groups of cell lines that are closely positioned to each other in this 15-dimensional data set and therefore have more similarities regarding GDF15 expression upon treatment with the 15 drugs compared to cell lines of other clusters.
Supplementary Materials and Methods
Data collection of cancer cell line properties
Gene expression data of NCI-60 upon treatment with 15 anticancer compounds were collected from NCI-
60 Transcriptional Pharmacodynamics Workbench 11. […]

GDF15 [3] = experiment: Doxorubicin-induced GDF15 secretion in hiPSC-CMs, simultaneous treatment with BET inhibitors (ELISA); conditions: simultaneous 100 nM doxorubicin and 0.1 to 1000 nM BET inhibitor, 48 h
From the text: (§3) Host cells are known to contribute to elevated GDF15 levels in cachexia patients when exposed to drug toxicity. […] We plotted GDF15 fold-changes against the respective reported half maximal inhibitory concentrations (IC50) of each BET inhibitor for BRD2, BRD3 and BRD4, whenever available. GDF15 fold-change thereby meant the ratio of GDF15 expression induced by doxorubicin only and doxorubicin combined with BET inhibitor normalized to cell viability.
as §1, §2
Supplementary Figure S6. (A) Fold-change of GDF15 secretion by hiPSC-CMs after simultaneous
treatment with doxorubicin and seven BET Inhibitors for 48 h. Normalized to cell viability and non-treated […]

GDF15 [4] = experiment: Doxorubicin-induced GDF15 mRNA expression in hiPSC-CMs, successive treatment with BET inhibitors (qPCR)
From the text: as §3, §1
as §2, with “β-actin.” for “β-actin. For secreted GDF15 protein quantification, cell culture medium was collected after drug treatment and stored at − 20 °C until ELISA was performed using Human GDF-15 ELISA Kit (Abcam, ab155432) according to the manufacturer’s instruction. Resulting GDF15 concentrations were normalized to non-treated control and respective relative cell viability.”

COc1cc(NS(C)(=O)=O)ccc1Nc1c2ccccc2nc2ccccc12 [Amsacrine]
fold increase of media concentration of GDF15 (GDF15 [1]): more than threefold

CC(C)C[C@H](NC(=O)[C@H](Cc1ccccc1)NC(=O)c1cnccn1)B(O)O [Bortezomib]
fraction of responsive cell lines in cluster B (GDF15 [2]; NCI-60 cluster B): all

Cc1sc2c(c1C)C(c1ccc(Cl)cc1)=N[C@@H](CC(N)=O)c1nnc(C)n1-2 [CPI203]
effect on doxorubicin-induced GDF15 overexpression (secretion) (GDF15 [3]): suppressed

CC[C@@]1(O)C(=O)OCc2c1cc1n(c2=O)Cc2cc3ccccc3nc2-1 [Camptothecin]
fold increase of media concentration of GDF15 (GDF15 [1]): more than threefold

COc1cccc2c1C(=O)c1c(O)c3c(c(O)c1C2=O)C[C@@](O)(C(C)=O)C[C@@H]3O[C@H]1C[C@H](N)[C@H](O)[C@H](C)O1 [Daunorubicin]
GDF15 protein concentration (GDF15 [1]): exceeded the upper limit of quantification

COc1cccc2c1C(=O)c1c(O)c3c(c(O)c1C2=O)C[C@@](O)(C(=O)CO)C[C@@H]3O[C@H]1C[C@H](N)[C@H](O)[C@H](C)O1 [Doxorubicin]
fold increase of media concentration of GDF15 (GDF15 [1]): more than threefold | fraction of responsive cell lines in cluster C (GDF15 [2]; NCI-60 cluster C): 63.6% | increase of GDF15 expression on RNA level (GDF15 [4]; doxorubicin treatment (20 or 200 nM)): up to sevenfold

COc1cc([C@@H]2c3cc4c(cc3[C@@H](O[C@@H]3O[C@@H]5CO[C@@H](C)O[C@H]5[C@H](O)[C@H]3O)[C@H]3COC(=O)[C@H]23)OCO4)cc(OC)c1O [Etoposide]
fold increase of media concentration of GDF15 (GDF15 [1]): more than threefold

COc1cc2c(cc1-c1c(C)noc1C)ncc1[nH]c(=O)n([C@H](C)c3ccccn3)c12 [I-BET151]
effect on doxorubicin-induced GDF15 overexpression (secretion) (GDF15 [3]): suppressed

CC(=O)[C@]1(O)Cc2c(O)c3c(c(O)c2[C@@H](O[C@H]2C[C@H](N)[C@H](O)[C@H](C)O2)C1)C(=O)c1ccccc1C3=O [Idarubicin]
GDF15 protein concentration (GDF15 [1]): exceeded the upper limit of quantification | fold increase of media concentration of GDF15 (GDF15 [1]): more than threefold

Cc1sc2c(c1C)C(c1ccc(Cl)cc1)=N[C@@H](CC(=O)Nc1ccc(O)cc1)c1nnc(C)n1-2 [OTX015]
effect on doxorubicin-induced GDF15 overexpression (mRNA) (GDF15 [4]; BET inhibitor given subsequently to doxorubicin): suppressed | effect on doxorubicin-induced GDF15 overexpression (secretion) (GDF15 [3]): suppressed

COc1ccccc1S(=O)(=O)Nc1ccc2c(c1)CN(C)C(=O)N2 [PFI-1]
effect on doxorubicin-induced GDF15 overexpression (secretion) (GDF15 [3]): suppressed

CCN(CC)CCNC(=O)c1c(C)[nH]c(/C=C2\C(=O)Nc3ccc(F)cc32)c1C [Sunitinib]
induction of GDF15 on average (GDF15 [2]): did not lead to notable GDF15 regulation

Nc1ncn([C@@H]2O[C@H](CO)[C@@H](O)[C@H]2O)c(=O)n1 [azacytidine]
fraction of responsive cell lines in cluster D (GDF15 [2]; NCI-60 cluster D): all

CO[C@H]1C[C@@H]2CC[C@@H](C)[C@@](O)(O2)C(=O)C(=O)N2CCCC[C@H]2C(=O)O[C@H]([C@H](C)C[C@@H]2CC[C@@H](O)[C@H](OC)C2)CC(=O)[C@H](C)/C=C(\C)[C@@H](O)[C@@H](OC)C(=O)[C@H](C)C[C@H](C)/C=C/C=C/C=C/1C [sirolimus]
ratio of responsive cell lines (GDF15 induction) (GDF15 [2]): 4%

CNC(=O)c1cc(Oc2ccc(NC(=O)Nc3ccc(Cl)c(C(F)(F)F)c3)cc2)ccn1 [sorafenib]
induction of GDF15 on average (GDF15 [2]): threefold | fraction of responsive cell lines in cluster A (GDF15 [2]; NCI-60 cluster A): all | ratio of responsive cell lines (GDF15 induction) (GDF15 [2]): 71%
